Assay results from patent US4898940A (priority 1989, dated 1990).
Values after ≈ are worked out from the molar mass of the structure shown.

Legend:
Melanotic melanoma B16 = assay: Antitumor activity against B16 melanoma in mice; type: in vivo, BDF1 mice; conditions: for T/C % of MST: B16 melanoma, BDF1 mice
Method: (§1) Lymphocytic leukemia P388 (CDF1 and BDF1 mice) and lymphoid leukemia L1210 (BDF1 mice) were inoculated by intraperitoneal injection of 0.8 ml diluted ascitic fluid containing 10^6 and 10^5 cells per mouse, respectively. Melanotic melanoma B16 (BDF1 mice) were implanted 0.5 ml of a 10% tumor brei intraperitoneally. Test materials were dissolved in 0.9% saline containing 10% dimethyl sulfoxide and graded doses of them were administered to mice intraperitoneally 24 hours after tumor implantation. Either olivomycin (NSC 38270) or mitomycin C was comparatively tested as a reference compound in the experiments.

Solubility in solvents = type: physicochemical
[1] = test system: gram-positive and gram-negative bacteria; assay: In vitro antibacterial activity; type: cell-based; conditions: at 50 mcg/ml
Text: (§2) Nutrient agar (Eiken) was used for bacteria and Sabouraud dextrose agar (Difco) for fungi. The inoculum size was adjusted to 10^4 CFU/ml for bacteria and 10^5 -10^7 CFU/ml for fungi.

lymphoid leukemia L1210 = assay: Antitumor activity against L1210 leukemia in mice; type: in vivo, BDF1 mice; conditions: for T/C % of MST: L1210 leukemia, BDF1 mice
Method: as §1

Cryptococcus neoformans = assay: MIC, serial agar dilution (Sabouraud dextrose agar); type: cell-based
Text: as §2

[2] = test system: Trichophyton mentagrophytes; assay: as above; type: cell-based
Text: as §2

Fusarium moniliforme = assay: as above; type: cell-based; conditions: Fusarium moniliforme A 2284
Text: as §2

Mucor spinosus = assay: as above; type: cell-based; conditions: Mucor spinosus IFO 5317
Text: as §2

Candida albicans = assay: as above; type: cell-based
Text: as §2

Blastomyces dermaditis = assay: as above; type: cell-based; conditions: Blastomyces dermaditis IFO 8144
Text: as §2

Sporothrix schenckii = assay: as above; type: cell-based; conditions: Sporothrix schenckii IFO 8158
Text: as §2

Petriellidium boydii = assay: as above; type: cell-based; conditions: Petriellidium boydii IFO 8073
Text: as §2

Aspergillus flavus = assay: as above; type: cell-based; conditions: Aspergillus flavus FA 21436
Text: as §2

Aspergillus fumigatus = assay: as above; type: cell-based
Text: as §2

[3] = Acute toxicity, single intraperitoneal administration; conditions: male ddY mice
Piricularia oryzae = type: cell-based; conditions: Piricularia oryzae D 91; Sabouraud dextrose agar
Enterobacter cloacae = assay: MIC, serial agar dilution (nutrient agar); type: cell-based; conditions: Enterobacter cloacae A9659
Text: as §2

Streptococcus faecalis = assay: MIC, serial agar dilution (nutrient agar); type: cell-based; conditions: Streptococcus faecalis A9612
Text: as §2

Proteus mirabilis = assay: MIC, serial agar dilution (nutrient agar); type: cell-based; conditions: Proteus mirabilis A9554
Text: as §2

Serratia marcescens = assay: MIC, serial agar dilution (nutrient agar); type: cell-based; conditions: Serratia marcescens A20222
Text: as §2

[4] = test system: Staphylococcus epidermidis; assay: MIC, serial agar dilution (nutrient agar); type: cell-based
Text: as §2

Staphylococcus aureus = assay: MIC, serial agar dilution (nutrient agar); type: cell-based
Text: as §2

Escherichia coli = assay: MIC, serial agar dilution (nutrient agar); type: cell-based; conditions: Escherichia coli NIHJ
Text: as §2

Klebsiella pneumoniae = assay: MIC, serial agar dilution (nutrient agar); type: cell-based; conditions: Klebsiella pneumoniae D-11
Text: as §2

Bacillus subtilis = assay: MIC, serial agar dilution (nutrient agar); type: cell-based; conditions: Bacillus subtilis PCI-219
Text: as §2

Morganella morganii = assay: MIC, serial agar dilution (nutrient agar); type: cell-based; conditions: Morganella morganii A9553
Text: as §2

Micrococcus luteus = assay: MIC, serial agar dilution (nutrient agar); type: cell-based; conditions: Micrococcus luteus PCI-1001
Text: as §2

Pseudomonas aeruginosa = assay: MIC, serial agar dilution (nutrient agar); type: cell-based; conditions: Pseudomonas aeruginosa A9930
Text: as §2

Proteus vulgaris = assay: MIC, serial agar dilution (nutrient agar); type: cell-based; conditions: Proteus vulgaris A9436
Text: as §2

[5] = test system: pathogenic fungi such as Candida albicans, Cryptococcus neoformans, Aspergillus fumigatus, Trichlophyton mentagrophytes and Mucor spinosus; assay: In vitro antifungal activity; type: cell-based; conditions: clinically important pathogenic fungi
Text: as §2

[6] = test system: Lymphocytic leukemia P388; assay: Antitumor activity against P388 leukemia in mice; type: in vivo, CDF1 and BDF1 mice; conditions: for T/C % of MST: P388 leukemia; for antitumor activity against P388 leukemia (in words): ip
Method: as §1
Values for percentage ratios of 125 and above indicate significant antitumor effect.

SMILES: CCCCCCC/C=C/C=C/C(=O)N[C@H](C(=O)N[C@H]1C[C@@H](O)CCNC(=O)/C=C/[C@H](C)NC1=O)[C@@H](C)O [BU-2867T A]
- T/C % of MST (Melanotic melanoma B16; 0.25 mg/kg/day ip): 113%
- T/C % of MST (Melanotic melanoma B16; 0.5 mg/kg/day ip): 116%
- T/C % of MST (Melanotic melanoma B16; 1 mg/kg/day ip): 125%
- T/C % of MST (Melanotic melanoma B16; 2 mg/kg/day ip): Tox.
- antitumor activity against B16 melanoma (in words) (Melanotic melanoma B16; compared with P388): less active
- solubility in chloroform, acetonitrile and ethyl acetate (Solubility in solvents): slightly soluble
- solubility in methanol, ethanol, n-butanol and dimethyl sulfoxide (Solubility in solvents): readily soluble
- solubility in n-hexane and water (Solubility in solvents): practically insoluble
- growth inhibition of gram-positive and gram-negative bacteria (in words) [1]: did not inhibit the growth
- T/C % of MST (lymphoid leukemia L1210; 0.063 mg/kg/day ip): 106%
- T/C % of MST (lymphoid leukemia L1210; 0.13 mg/kg/day ip): 118%
- T/C % of MST (lymphoid leukemia L1210; 0.25 mg/kg/day ip): 118%
- T/C % of MST (lymphoid leukemia L1210; 0.5 mg/kg/day ip): 129%
- antitumor activity against L1210 leukemia (in words) (lymphoid leukemia L1210; compared with P388): less active
- MIC (Cryptococcus neoformans; Cryptococcus neoformans D 49): 25 µg/mL (≈ 48 µM)
- MIC (Cryptococcus neoformans; Cryptococcus neoformans IAM 4514): 25 µg/mL (≈ 48 µM)
- MIC ([2]; Trichophyton mentagrophytes #4329): 25 µg/mL (≈ 48 µM)
- MIC ([2]; Trichophyton mentagrophytes D 155): 25 µg/mL (≈ 48 µM)
- MIC (Fusarium moniliforme): > 50 µg/mL
- MIC (Mucor spinosus): 1.6 µg/mL (≈ 3.07 µM)
- MIC (Candida albicans; Candida albicans A 9540): 1.6 µg/mL (≈ 3.07 µM)
- MIC (Candida albicans; Candida albicans IAM 4888): 3.1 µg/mL (≈ 5.95 µM)
- MIC (Blastomyces dermaditis): 50 µg/mL (≈ 96 µM)
- MIC (Sporothrix schenckii): > 50 µg/mL
- MIC (Petriellidium boydii): > 50 µg/mL
- MIC (Aspergillus flavus): 25 µg/mL (≈ 48 µM)
- MIC (Aspergillus fumigatus; Aspergillus fumigatus IAM 2034): 1.6 µg/mL (≈ 3.07 µM)
- MIC (Aspergillus fumigatus; Aspergillus fumigatus IAM 2530): 1.6 µg/mL (≈ 3.07 µM)
- LD50 [3]: 8.1 mg/kg
- MIC (Piricularia oryzae): > 50 µg/mL
- MIC (Enterobacter cloacae): > 50 µg/mL
- MIC (Streptococcus faecalis): > 50 µg/mL
- MIC (Proteus mirabilis): > 50 µg/mL
- MIC (Serratia marcescens): > 50 µg/mL
- MIC ([4]; Staphylococcus epidermidis A22152): > 50 µg/mL
- MIC ([4]; Staphylococcus epidermidis D153): > 50 µg/mL
- MIC (Staphylococcus aureus; Staphyloccus aureus Bx-1633): > 50 µg/mL
- MIC (Staphylococcus aureus; Staphylococcus aureus 209P): > 50 µg/mL
- MIC (Staphylococcus aureus; Staphylococcus aureus Smith): > 50 µg/mL
- MIC (Escherichia coli): > 50 µg/mL
- MIC (Klebsiella pneumoniae): > 50 µg/mL
- MIC (Bacillus subtilis): > 50 µg/mL
- MIC (Morganella morganii): > 50 µg/mL
- MIC (Micrococcus luteus): > 50 µg/mL
- MIC (Pseudomonas aeruginosa): > 50 µg/mL
- MIC (Proteus vulgaris): > 50 µg/mL
- antifungal activity (in words) [5]: somewhat less active than component C
- T/C % of MST ([6]; 0.031 mg/kg/day ip, schedule 2 (once daily on days 1 through 9)): 109%
- T/C % of MST ([6]; 0.063 mg/kg/day ip, schedule 2 (once daily on days 1 through 9)): 136%
- T/C % of MST ([6]; 0.1 mg/kg/day ip, schedule 1 (once daily on days 1, 4 and 7)): 120%
- T/C % of MST ([6]; 0.13 mg/kg/day ip, schedule 2 (once daily on days 1 through 9)): 147%
- T/C % of MST ([6]; 0.25 mg/kg/day ip, schedule 2 (once daily on days 1 through 9)): 156%
- T/C % of MST ([6]; 0.3 mg/kg/day ip, schedule 1 (once daily on days 1, 4 and 7)): 130%
- T/C % of MST ([6]; 0.5 mg/kg/day ip, schedule 2 (once daily on days 1 through 9)): 186%
- T/C % of MST ([6]; 1 mg/kg/day ip, schedule 1 (once daily on days 1, 4 and 7)): 140%
- T/C % of MST ([6]; 1 mg/kg/day ip, schedule 2 (once daily on days 1 through 9)): 228%
- T/C % of MST ([6]; 2 mg/kg/day ip, schedule 2 (once daily on days 1 through 9)): 67%
- antitumor activity against P388 leukemia (in words) ([6]; treatment schedule 1 (once daily on days 1, 4 and 7)): showed antitumor activity
- antitumor activity against P388 leukemia (in words) ([6]; treatment schedule 2 (once daily on days 1 through 9)): highly active
